Data published in PubChem BioAssay (NCI).
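Briefly, cells in 96-well plates were exposed to five compound concentrations for 48 h, and endpoints were estimated by linear interpolation. Here, GI50 denotes the concentration required for 50% inhibition of growth. Definition used: TGI = concentration required for complete inhibition of growth.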

Tests used:
Experiment in all cases: inhibition of tumour cell growth, NCI panel, 48 h
M14 melanoma = test system: M14 melanoma
ACHN renal = test system: ACHN renal
COLO 205 colon = test system: COLO 205 colon
SW-620 colon = test system: SW-620 colon
OVCAR-4 ovarian = test system: OVCAR-4 ovarian
HT29 colon = test system: HT29 colon
HCT-15 colon = test system: HCT-15 colon
LOX IMVI melanoma = test system: LOX IMVI melanoma
UACC-257 melanoma = test system: UACC-257 melanoma
OVCAR-3 ovarian = test system: OVCAR-3 ovarian
RXF 393 renal = test system: RXF 393 renal
786-0 renal = test system: 786-0 renal
K-562 leukemia = test system: K-562 leukemia
MALME-3M melanoma = test system: MALME-3M melanoma
OVCAR-5 ovarian = test system: OVCAR-5 ovarian
TK-10 renal = test system: TK-10 renal
KM12 colon = test system: KM12 colon
OVCAR-8 ovarian = test system: OVCAR-8 ovarian
SNB-19 CNS = test system: SNB-19 CNS
SK-OV-3 ovarian = test system: SK-OV-3 ovarian
T-47D breast = test system: T-47D breast
HL-60(TB) leukemia = test system: HL-60(TB) leukemia
MCF7 breast = test system: MCF7 breast
CAKI-1 renal = test system: CAKI-1 renal
UACC-62 melanoma = test system: UACC-62 melanoma
HOP-62 NSCLC = test system: HOP-62 NSCLC
NCI-H23 lung = test system: NCI-H23 lung
RPMI-8226 leukemia = test system: RPMI-8226 leukemia
DU-145 prostate = test system: DU-145 prostate
SK-MEL-28 melanoma = test system: SK-MEL-28 melanoma
MDA-N = test system: MDA-N
SK-MEL-2 melanoma = test system: SK-MEL-2 melanoma
HOP-92 NSCLC = test system: HOP-92 NSCLC
SK-MEL-5 melanoma = test system: SK-MEL-5 melanoma
SN12C renal = test system: SN12C renal
NCI-H460 lung = test system: NCI-H460 lung
SF-268 CNS = test system: SF-268 CNS
BT-549 breast = test system: BT-549 breast
SNB-75 CNS = test system: SNB-75 CNS
U251 CNS = test system: U251 CNS
MOLT-4 leukemia = test system: MOLT-4 leukemia
SF-539 CNS = test system: SF-539 CNS
NCI-H226 lung = test system: NCI-H226 lung
HCT-116 colon = test system: HCT-116 colon
A549 NSCLC = test system: A549 NSCLC
NCI/ADR-RES ovarian = test system: NCI/ADR-RES ovarian
SF-295 CNS = test system: SF-295 CNS
PC-3 prostate = test system: PC-3 prostate
HS 578T breast = test system: HS 578T breast
NCI-H522 lung = test system: NCI-H522 lung
EKVX NSCLC = test system: EKVX NSCLC
IGROV1 ovarian = test system: IGROV1 ovarian
SR leukemia = test system: SR leukemia
MDA-MB-231 breast = test system: MDA-MB-231 breast
MDA-MB-435 = test system: MDA-MB-435
CCRF-CEM leukemia = test system: CCRF-CEM leukemia
UO-31 renal = test system: UO-31 renal
A498 renal = test system: A498 renal
HCC-2998 colon = test system: HCC-2998 colon

## O.O.[NH-]C1(C(=O)O)CCCC1.[NH-]C1(C(=O)O)CCCC1.[Ni+2]
M14 melanoma
  GI50: 96.7 µM
  TGI: > 100 µM
ACHN renal
  GI50: > 100 µM
  TGI: > 100 µM
COLO 205 colon
  TGI: > 100 µM
SW-620 colon
  TGI: > 100 µM
OVCAR-4 ovarian
  TGI: > 100 µM
HT29 colon
  TGI: > 100 µM
HCT-15 colon
  TGI: > 100 µM
LOX IMVI melanoma
  TGI: > 100 µM
UACC-257 melanoma
  TGI: > 100 µM
OVCAR-3 ovarian
  TGI: > 100 µM
RXF 393 renal
  TGI: > 100 µM
786-0 renal
  GI50: > 100 µM
  TGI: > 100 µM
K-562 leukemia
  TGI: > 100 µM
MALME-3M melanoma
  TGI: > 100 µM
OVCAR-5 ovarian
  TGI: > 100 µM
TK-10 renal
  GI50: > 100 µM
  TGI: > 100 µM
KM12 colon
  TGI: > 100 µM
OVCAR-8 ovarian
  TGI: > 100 µM
SNB-19 CNS
  TGI: > 100 µM
SK-OV-3 ovarian
  TGI: > 100 µM
T-47D breast
  GI50: > 100 µM
  TGI: > 100 µM
HL-60(TB) leukemia
  TGI: > 100 µM
MCF7 breast
  TGI: > 100 µM
CAKI-1 renal
  TGI: > 100 µM
UACC-62 melanoma
  TGI: > 100 µM
HOP-62 NSCLC
  TGI: > 100 µM
NCI-H23 lung
  TGI: > 100 µM
RPMI-8226 leukemia
  TGI: > 100 µM
DU-145 prostate
  GI50: > 100 µM
  TGI: > 100 µM
SK-MEL-28 melanoma
  TGI: > 100 µM
MDA-N
  GI50: > 100 µM
  TGI: > 100 µM
SK-MEL-2 melanoma
  TGI: > 100 µM
HOP-92 NSCLC
  TGI: > 100 µM
SK-MEL-5 melanoma
  TGI: > 100 µM
SN12C renal
  TGI: > 100 µM
NCI-H460 lung
  TGI: > 100 µM
SF-268 CNS
  TGI: > 100 µM
BT-549 breast
  GI50: > 100 µM
  TGI: > 100 µM
SNB-75 CNS
  TGI: > 100 µM
U251 CNS
  TGI: > 100 µM
MOLT-4 leukemia
  TGI: > 100 µM
SF-539 CNS
  TGI: > 100 µM
NCI-H226 lung
  TGI: > 100 µM
HCT-116 colon
  TGI: > 100 µM
A549 NSCLC
  TGI: > 100 µM
NCI/ADR-RES ovarian
  TGI: > 100 µM
SF-295 CNS
  TGI: > 100 µM
PC-3 prostate
  GI50: > 100 µM
  TGI: > 100 µM
HS 578T breast
  GI50: > 100 µM
  TGI: > 100 µM
NCI-H522 lung
  TGI: > 100 µM
EKVX NSCLC
  TGI: > 100 µM
IGROV1 ovarian
  TGI: > 100 µM
SR leukemia
  GI50: 65.9 µM
  TGI: > 100 µM
MDA-MB-231 breast
  GI50: > 100 µM
  TGI: > 100 µM
MDA-MB-435
  GI50: > 100 µM
  TGI: > 100 µM
CCRF-CEM leukemia
  TGI: > 100 µM
UO-31 renal
  TGI: > 100 µM
A498 renal
  TGI: > 100 µM

## COC(=O)C1CC2CCC1(O[Si](C(C)C)(C(C)C)C(C)C)C(O)C2 (centres undefined)
M14 melanoma
  TGI: 32.7 µM
ACHN renal
  TGI: 80.4 µM
COLO 205 colon
  TGI: 71.2 µM
SW-620 colon
  TGI: 60.8 µM
OVCAR-4 ovarian
  TGI: > 100 µM
HT29 colon
  TGI: 30.2 µM
HCT-15 colon
  TGI: 30.6 µM
LOX IMVI melanoma
  TGI: 27.5 µM
OVCAR-3 ovarian
  TGI: 39.3 µM
RXF 393 renal
  TGI: 28.8 µM
786-0 renal
  TGI: 31.5 µM
K-562 leukemia
  TGI: 28.9 µM
MALME-3M melanoma
  TGI: > 100 µM
OVCAR-5 ovarian
  TGI: 27.2 µM
KM12 colon
  TGI: 38.6 µM
OVCAR-8 ovarian
  TGI: 28.1 µM
SNB-19 CNS
  TGI: 44.2 µM
HCC-2998 colon
  TGI: 46 µM
SK-OV-3 ovarian
  TGI: > 100 µM
T-47D breast
  TGI: 76.7 µM
HL-60(TB) leukemia
  TGI: > 100 µM
MCF7 breast
  TGI: 28.4 µM
CAKI-1 renal
  TGI: > 100 µM
UACC-62 melanoma
  TGI: > 100 µM
HOP-62 NSCLC
  TGI: 44.1 µM
NCI-H23 lung
  TGI: 44.9 µM
RPMI-8226 leukemia
  TGI: 40.7 µM
DU-145 prostate
  TGI: 34.9 µM
SK-MEL-28 melanoma
  TGI: 44.9 µM
MDA-N
  TGI: 57.4 µM
SK-MEL-2 melanoma
  TGI: 32.1 µM
SK-MEL-5 melanoma
  TGI: 61.7 µM
SN12C renal
  TGI: 34.5 µM
NCI-H460 lung
  TGI: > 100 µM
SF-268 CNS
  TGI: 79.2 µM
BT-549 breast
  TGI: 79.3 µM
SNB-75 CNS
  TGI: > 100 µM
U251 CNS
  TGI: 31.9 µM
MOLT-4 leukemia
  TGI: 30.1 µM
NCI-H226 lung
  TGI: 40.7 µM
HCT-116 colon
  TGI: 36.2 µM
A549 NSCLC
  TGI: 33.4 µM
NCI/ADR-RES ovarian
  TGI: > 100 µM
SF-295 CNS
  TGI: 47.2 µM
PC-3 prostate
  TGI: 47.7 µM
HS 578T breast
  TGI: 99.6 µM
NCI-H522 lung
  TGI: 44.7 µM
EKVX NSCLC
  TGI: 33.6 µM
IGROV1 ovarian
  TGI: 94 µM
SR leukemia
  TGI: 26.6 µM
MDA-MB-231 breast
  TGI: 38.9 µM
MDA-MB-435
  TGI: 30.9 µM
CCRF-CEM leukemia
  TGI: > 100 µM
UO-31 renal
  TGI: 30.2 µM
A498 renal
  TGI: > 100 µM

## CN1CC[C@]23c4c5ccc(O)c4O[C@H]2C(O)CC[C@@]3(O)[C@H]1C5 (some centres undefined)
M14 melanoma
  TGI: > 100 µM
ACHN renal
  TGI: > 100 µM
COLO 205 colon
  TGI: > 100 µM
SW-620 colon
  TGI: > 100 µM
OVCAR-4 ovarian
  TGI: > 100 µM
HT29 colon
  TGI: > 100 µM
HCT-15 colon
  TGI: > 100 µM
LOX IMVI melanoma
  TGI: > 100 µM
UACC-257 melanoma
  TGI: > 100 µM
OVCAR-3 ovarian
  TGI: > 100 µM
786-0 renal
  TGI: > 100 µM
MALME-3M melanoma
  TGI: > 100 µM
OVCAR-5 ovarian
  TGI: > 100 µM
TK-10 renal
  TGI: > 100 µM
KM12 colon
  TGI: > 100 µM
OVCAR-8 ovarian
  TGI: > 100 µM
SNB-19 CNS
  TGI: > 100 µM
SK-OV-3 ovarian
  TGI: > 100 µM
T-47D breast
  TGI: > 100 µM
HL-60(TB) leukemia
  TGI: > 100 µM
MCF7 breast
  TGI: > 100 µM
CAKI-1 renal
  TGI: > 100 µM
UACC-62 melanoma
  TGI: > 100 µM
HOP-62 NSCLC
  TGI: > 100 µM
NCI-H23 lung
  TGI: > 100 µM
RPMI-8226 leukemia
  TGI: > 100 µM
DU-145 prostate
  TGI: > 100 µM
SK-MEL-28 melanoma
  TGI: > 100 µM
MDA-N
  TGI: > 100 µM
SK-MEL-2 melanoma
  TGI: > 100 µM
HOP-92 NSCLC
  TGI: > 100 µM
SK-MEL-5 melanoma
  TGI: > 100 µM
SN12C renal
  TGI: > 100 µM
SF-268 CNS
  TGI: > 100 µM
BT-549 breast
  TGI: > 100 µM
U251 CNS
  TGI: > 100 µM
MOLT-4 leukemia
  TGI: > 100 µM
SF-539 CNS
  TGI: > 100 µM
NCI-H226 lung
  TGI: > 100 µM
HCT-116 colon
  TGI: > 100 µM
A549 NSCLC
  TGI: > 100 µM
NCI/ADR-RES ovarian
  TGI: > 100 µM
SF-295 CNS
  TGI: > 100 µM
PC-3 prostate
  TGI: > 100 µM
HS 578T breast
  TGI: > 100 µM
NCI-H522 lung
  TGI: > 100 µM
EKVX NSCLC
  TGI: > 100 µM
IGROV1 ovarian
  TGI: > 100 µM
SR leukemia
  TGI: > 100 µM
MDA-MB-231 breast
  TGI: > 100 µM
MDA-MB-435
  TGI: > 100 µM
UO-31 renal
  TGI: > 100 µM
A498 renal
  TGI: > 100 µM
